Key:
Assay type in all cases: functional
CCRF-CEM [1] = test: Cytotoxicity against human CCRF-CEM cells after 48 hrs by SRB assay; conditions: for CC50: read-out: LC50 (the source's name)
SNB-75 = test: Cytotoxicity against human SNB75 cells after 48 hrs by SRB assay; conditions: SNB-75, 48 h
LOX IMVI = test: Cytotoxicity against human LOXIMVI cells after 48 hrs by SRB assay
SK-MEL-28 [2] = test: Cytotoxicity against human SK-MEL-28 cells after 48 hrs by SRB assay; conditions: SK-MEL-28, 48 h; for CC50: read-out: LC50 (the source's name)
TK-10 = test: Cytotoxicity against human TK10 cells after 48 hrs by SRB assay; conditions: TK-10, 48 h; for CC50: read-out: LC50 (the source's name)
UO-31 = test: Cytotoxicity against human UO31 cells after 48 hrs by SRB assay; conditions: UO-31, 48 h
RPMI-8226 [3] = test: Growth inhibition of human RPMI8226 cells assessed as cell growth at 10^-8 M incubated for 48 hrs by sulforhodamine B assay relative to control; conditions: RPMI-8226, 48 h, read-out: Activity
A549 = test: Growth inhibition of human A549/ATCC cells assessed as cell growth at 10^-8 M incubated for 48 hrs by sulforhodamine B assay relative to control; conditions: A549, 48 h, read-out: Activity
HCC 2998 = test: Growth inhibition of human HCC2998 cells assessed as cell growth at 10^-8 M incubated for 48 hrs by sulforhodamine B assay relative to control; conditions: HCC 2998, 48 h, read-out: Activity
HCT-116 = test: Growth inhibition of human HCT116 cells assessed as cell growth at 10^-8 M incubated for 48 hrs by sulforhodamine B assay relative to control; conditions: HCT-116, 48 h, read-out: Activity
MDA-MB-435 = test: Growth inhibition of human MDA-MB-435 cells assessed as cell growth at 10^-8 M incubated for 48 hrs by sulforhodamine B assay relative to control; conditions: MDA-MB-435, 48 h, read-out: Activity
SK-MEL-28 [4] = test: Growth inhibition of human SK-MEL-28 cells assessed as cell growth at 10^-8 M incubated for 48 hrs by sulforhodamine B assay relative to control; conditions: SK-MEL-28, 48 h, read-out: Activity
NCI/ADR-RES = test: Growth inhibition of human NCI/ADR-RES cells assessed as cell growth at 10^-8 M incubated for 48 hrs by sulforhodamine B assay relative to control; conditions: read-out: Activity
SK-OV-3 = test: Growth inhibition of human SKOV3 cells assessed as cell growth at 10^-8 M incubated for 48 hrs by sulforhodamine B assay relative to control; conditions: SK-OV-3, 48 h, read-out: Activity
CCRF-CEM [5] = test: Growth inhibition of human CCRF-CEM cells assessed as cell growth at 10^-7 M incubated for 48 hrs by sulforhodamine B assay relative to control; conditions: read-out: Activity
SF-268 [6] = test: Growth inhibition of human SF268 cells assessed as cell growth at 10^-7 M incubated for 48 hrs by sulforhodamine B assay relative to control; conditions: SF-268, 48 h, read-out: Activity
UACC-257 = test: Growth inhibition of human UACC257 cells assessed as cell growth at 10^-7 M incubated for 48 hrs by sulforhodamine B assay relative to control; conditions: UACC-257, 48 h, read-out: Activity
RPMI-8226 [7] = test: Growth inhibition of human RPMI8226 cells assessed as cell growth at 10^-6 M incubated for 48 hrs by sulforhodamine B assay relative to control; conditions: RPMI-8226, 48 h, read-out: Activity
SR = test: Growth inhibition of human SR cells assessed as cell growth at 10^-6 M incubated for 48 hrs by sulforhodamine B assay relative to control; conditions: read-out: Activity
EKVX = test: Growth inhibition of human EKVX cells assessed as cell growth at 10^-6 M incubated for 48 hrs by sulforhodamine B assay relative to control; conditions: read-out: Activity
HOP-92 = test: Growth inhibition of human HOP92 cells assessed as cell growth at 10^-6 M incubated for 48 hrs by sulforhodamine B assay relative to control; conditions: HOP-92, 48 h, read-out: Activity
NCI-H322M = test: Growth inhibition of human NCI-H322M cells assessed as cell growth at 10^-6 M incubated for 48 hrs by sulforhodamine B assay relative to control; conditions: read-out: Activity
HCT-15 = test: Growth inhibition of human HCT15 cells assessed as cell growth at 10^-6 M incubated for 48 hrs by sulforhodamine B assay relative to control; conditions: HCT-15, 48 h, read-out: Activity
SW-620 = test: Growth inhibition of human SW620 cells assessed as cell growth at 10^-6 M incubated for 48 hrs by sulforhodamine B assay relative to control; conditions: SW-620, 48 h, read-out: Activity
Malme-3M = test: Growth inhibition of human MALME-3M cells assessed as cell growth at 10^-6 M incubated for 48 hrs by sulforhodamine B assay relative to control; conditions: read-out: Activity
OVCAR-3 = test: Growth inhibition of human OVCAR3 cells assessed as cell growth at 10^-6 M incubated for 48 hrs by sulforhodamine B assay relative to control; conditions: OVCAR-3, 48 h, read-out: Activity
MOLT-4 = test: Growth inhibition of human MOLT4 cells assessed as cell growth at 10^-5 M incubated for 48 hrs by sulforhodamine B assay relative to control; conditions: MOLT-4, 48 h, read-out: Activity
COLO 205 = test: Growth inhibition of human COLO205 cells assessed as cell growth at 10^-5 M incubated for 48 hrs by sulforhodamine B assay relative to control; conditions: COLO 205, 48 h, read-out: Activity
SF-268 [8] = test: Growth inhibition of human SF268 cells assessed as cell growth at 10^-5 M incubated for 48 hrs by sulforhodamine B assay relative to control; conditions: SF-268, 48 h, read-out: Activity
OVCAR-4 = test: Growth inhibition of human OVCAR4 cells assessed as cell growth at 10^-5 M incubated for 48 hrs by sulforhodamine B assay relative to control; conditions: OVCAR-4, 48 h, read-out: Activity
PC-3 = test: Growth inhibition of human PC3 cells assessed as cell growth at 10^-4 M incubated for 48 hrs by sulforhodamine B assay relative to control; conditions: PC-3, 48 h, read-out: Activity
DU-145 = test: Growth inhibition of human DU145 cells assessed as cell growth at 10^-4 M incubated for 48 hrs by sulforhodamine B assay relative to control; conditions: DU-145, 48 h, read-out: Activity
[9] = read-out: pLC50 (the source's name) (converted)
[10] = read-out: LC50 (the source's name)

## C#C[C@@]1(O)[C@@H](CO)O[C@@H](n2ccc3c(N)ncnc32)[C@@H]1O
CCRF-CEM [1]
  CC50: > 100 µM
CCRF-CEM [1]; read-out: TGI
  TGI: > 100 µM
CCRF-CEM [1]; read-out: pGI50 (converted)
  GI50: 2.29 µM
CCRF-CEM [1]; read-out: pTGI
  TGI: > 100 µM
SNB-75; read-out: TGI
  TGI: 3.84 µM
SNB-75; read-out: pGI50 (converted)
  GI50: 1.82 µM
SNB-75; read-out: pTGI (converted)
  TGI: 3.8 µM
LOX IMVI; read-out: TGI
  TGI: 2.05 µM
LOX IMVI; read-out: pGI50 (converted)
  GI50: 0.661 µM
LOX IMVI; [9]
  CC50: 5.13 µM
LOX IMVI; read-out: pTGI (converted)
  TGI: 2.04 µM
SK-MEL-28 [2]
  CC50: > 100 µM
SK-MEL-28 [2]; read-out: TGI
  TGI: 20.2 µM
SK-MEL-28 [2]; read-out: pGI50 (converted)
  GI50: 3.98 µM
SK-MEL-28 [2]; read-out: pTGI (converted)
  TGI: 20 µM
TK-10
  CC50: > 100 µM
TK-10; read-out: TGI
  TGI: 9.48 µM
TK-10; read-out: pGI50 (converted)
  GI50: 2.63 µM
TK-10; read-out: pTGI (converted)
  TGI: 9.55 µM
UO-31; read-out: TGI
  TGI: 3.58 µM
UO-31; read-out: pGI50 (converted)
  GI50: 1.41 µM
UO-31; read-out: pTGI (converted)
  TGI: 3.55 µM
RPMI-8226 [3]
  growth at 0.01 µM: 103%
A549
  growth at 0.01 µM: 100%
HCC 2998
  growth at 0.01 µM: 99%
HCT-116
  growth at 0.01 µM: 91%
MDA-MB-435
  growth at 0.01 µM: 92%
SK-MEL-28 [4]
  growth at 0.01 µM: 93%
NCI/ADR-RES
  growth at 0.01 µM: 97%
SK-OV-3
  growth at 0.01 µM: 94%
CCRF-CEM [5]
  growth at 0.1 µM: 101%
SF-268 [6]
  growth at 0.1 µM: 95%
UACC-257
  growth at 0.1 µM: 105%
RPMI-8226 [7]
  growth at 1 µM: 44%
SR
  growth at 1 µM: 46%
EKVX
  growth at 1 µM: 67%
HOP-92
  growth at 1 µM: 86%
NCI-H322M
  growth at 1 µM: 58%
HCT-15
  growth at 1 µM: 48%
SW-620
  growth at 1 µM: 38%
Malme-3M
  growth at 1 µM: 72%
OVCAR-3
  growth at 1 µM: 92%
MOLT-4
  growth at 10 µM: 2%
COLO 205
  growth at 10 µM: -54%
SF-268 [8]
  growth at 10 µM: 5%
OVCAR-4
  growth at 10 µM: -9%
PC-3
  growth at 100 µM: -62%
DU-145
  growth at 100 µM: -48%

## C#C[C@@]1(O)[C@@H](CO)O[C@@H](n2cc(Br)c3c(N)ncnc32)[C@@H]1O
CCRF-CEM [1]; read-out: GI50
  GI50: 0.14 to 0.285 µM
CCRF-CEM [1]
  CC50: > 100 µM
CCRF-CEM [1]; read-out: TGI
  TGI: > 100 µM
CCRF-CEM [1]; read-out: pTGI
  TGI: > 100 µM
SNB-75; read-out: GI50
  GI50: 0.221 to 0.249 µM
SNB-75; [10]
  CC50: 1.64 to 3.67 µM
SNB-75; read-out: TGI
  TGI: 0.519 to 1.07 µM
LOX IMVI; read-out: GI50
  GI50: 0.029 to 0.105 µM
LOX IMVI; [10]
  CC50: 0.72 to 2.13 µM
LOX IMVI; read-out: TGI
  TGI: 0.176 to 0.351 µM
SK-MEL-28 [2]; read-out: GI50
  GI50: 3.05 to 4.37 µM
SK-MEL-28 [2]
  CC50: > 100 µM
SK-MEL-28 [2]; read-out: TGI
  TGI: 30.2 to 48.1 µM
TK-10; read-out: GI50
  GI50: 0.411 to 0.481 µM
TK-10
  CC50: > 100 µM
TK-10; read-out: TGI
  TGI: 85.8 to 100 µM
UO-31; read-out: GI50
  GI50: 0.115 to 0.13 µM
UO-31; read-out: TGI
  TGI: 0.315 to 1.5 µM
UO-31; [9]
  CC50: > 100 µM
RPMI-8226 [3]
  growth at 0.01 µM: 95 to 101%
A549
  growth at 0.01 µM: 94 to 99%
HCC 2998
  growth at 0.01 µM: 86 to 99%
HCT-116
  growth at 0.01 µM: 83%
MDA-MB-435
  growth at 0.01 µM: 89 to 92%
SK-MEL-28 [4]
  growth at 0.01 µM: 93 to 96%
NCI/ADR-RES
  growth at 0.01 µM: 80 to 90%
SK-OV-3
  growth at 0.01 µM: 91 to 93%
CCRF-CEM [5]
  growth at 0.1 µM: 58 to 83%
SF-268 [6]
  growth at 0.1 µM: 78 to 87%
UACC-257
  growth at 0.1 µM: 70 to 93%
SR
  growth at 1 µM: 7 to 9%
EKVX
  growth at 1 µM: 4 to 17%
NCI-H322M
  growth at 1 µM: 26 to 33%
HCT-15
  growth at 1 µM: 4 to 7%
SW-620
  growth at 1 µM: 4 to 9%
Malme-3M
  growth at 1 µM: 43 to 47%
OVCAR-3
  growth at 1 µM: 15 to 17%
SF-268 [8]
  growth at 10 µM: 7 to 11%
OVCAR-4
  growth at 10 µM: 7%
PC-3
  growth at 100 µM: -5%
DU-145
  growth at 100 µM: 8 to 10%

Reference: ChEMBL document CHEMBL4270599, “Synthesis of a 3'-C-ethynyl-β-d-ribofuranose purine nucleoside library: Discovery of C7-deazapurine analogs as potent antiproliferative nucleosides” (Eur J Med Chem, 2018)
